Measurements: patent US7754683B2, “Bioactive peptide of bone morphogenetic protein-2” (priority 2005, dated 2010)
Square brackets hold non-standard residues; d marks the D form. Ends that are not written are not given here. pS = N[C@@H](COP(=O)(O)O)C(=O)O

Tested on: Wistar rats
Test: Experimental research on animal ectopic osteogenesis (peptide/collagen sponge implantation)
Assay type: in vivo
Settings: for ectopic osteogenesis by CT scan imaging: 0.4 mg peptide on collagen sponge implanted in sacral spine muscles, CT at 3, 6, 8 weeks; for ectopic osteogenesis ability (overall result) / formation of new bone by histological examination (HE staining): 0.4 mg peptide/collagen sponge; for formation of new bone by histological examination (HE staining): eighth week
Procedure: The scaffold material is collagen sponge, the size of which is 5×5×5 mm^3. Three bone morphogenetic protein-2 active peptides are dissolved into saline solution, and then dropped on the collagen sponge in accordance with the 0.4 mg dose. Meanwhile, equivalent saline solution is dropped on the control pure collagen sponge, and freeze-dried for reserve after complete absorption.
(2) groups: 36 Wistar rats are randomly divided into three experimental groups, namely 0.4 mg bone morphogenetic protein-2 active peptide 1/collagen sponge group, 0.4 mg bone morphogenetic protein-2 active peptide 2/[…] group and 0.4 mg bone morphogenetic protein-2 active peptide 3/collagen sponge group, and the control group is using pure collagen sponge.
The anesthesia of rats is achieved by ketamine intraperitoneal injection. For two experimental groups, 0.4 mg bone morphogenetic protein-2 active peptide 1/collagen sponge and 0.4 mg bone morphogenetic protein-2 active peptide 2/collagen sponge are respectively implanted with 1 cm incision in the sacral spine muscles on the back. For […], pure collagen sponge of the same size is implanted into the gaps along one side of sacral spine muscles. CT radiography inspection of three rats groups is done after implantation in the 3, 6, 8 weeks, and then four rats of each group are killed at each time point. Local tissues of implant materials are sampled, after fixation by formaldehyde and paraffin-embedded sections, and histological observation is done with HE staining.

| Substance | ectopic osteogenesis by CT scan imaging | ectopic osteogenesis ability (overall result) | formation of new bone by histological examination (HE staining) |
| --- | --- | --- | --- |
| S^[PO4]KIPKASSVPTELSAISTLYLDDD ([pS]KIPKASSVPTELSAISTLYLDDD) | significant ectopic osteogenesis | good ectopic osteogenesis ability | significant formation of new bone |
| C16H31O—NH—CCCCGGGS^[PO4]KIPKASSVPTELSAISTLYL | significant ectopic osteogenesis | good ectopic osteogenesis ability | significant formation of new bone |
| CCCCDDDS^[PO4]KIPKASSVPTELSAISTLYL (CCCCDDD[pS]KIPKASSVPTELSAISTLYL; cysteine pairing not given here) | significant ectopic osteogenesis | good ectopic osteogenesis ability | significant formation of new bone |
